{
  "source": "patent US20230390273A1",
  "about": "“4-PHENYL-TETRAHYDROPYRIDINE DERIVATIVES FOR TREATING HEARING DISEASES” (CILCARE DEV, priority 2021, published 2023)",
  "key": {"[1]": {"test": "Plasma and inner ear fluid exposure after single trans-tympanic injection in thermoreversible hydrogel composition (Example 4)", "assay_type": "in vivo, male Wistar rats", "settings": "for concentration at 7 days / concentration at 168 h / concentration at 1 h / concentration at 24 h: male, Wistar, other: trans-tympanic injection; for concentration at 7 days: inner ear fluid, read-out: Concentrations in the inner ear fluid at 7 days post injection; for concentration at 7 days / High concentrations rapidly reached in the inner ear fluid / High concentrations rapidly reached in the IEF (molar): trans-tympanic injection; for concentration at 1 h: T0 + 1 hour; for concentration at 24 h: T0 + 24 hours; for High concentrations rapidly reached in the inner ear fluid: summary", "method": "Composition 4P and composition 4X as described in example 2 were administered to male Wistar rats (5 animals per active agent and timepoint), as described below.\nAt time T0, 30 μL of composition 4P were administered to 15 rats, in a single ear via trans-tympanic injection. The dose of paliroden fumarate that has been administered is thus of 300 μg in one ear of each rat.\nAt time T0, 30 μL of composition 4X were administered to 15 other rats, in a single ear via trans-tympanic injection. The dose of xaliproden hydrochloride that has been administered is thus of 150 μg in one ear of each rat.\nFor the 15 rats that have received composition 4P and for the 15 rats that have received composition 4X, plasmatic and inner ear expositions were determined via blood and cochlea terminal sampling in order to achieve lithium-heparin plasma and inner ear fluid preparation, at T+1 hour, T+24 hours and T+168 hours. Bioanalytical methods were validated in both matrices (lithium heparin plasma and inner ear fluid) with a range of 0.2 to 815 ng/mL for paliroden (fumarate salt) and 0.38 to 763 ng/mL for xaliproden (hydrochloride salt)."}, "male Wistar rats": {"test_system": "male Wistar rats", "test": "ABR thresholds after acoustic trauma and trans-tympanic treatment (Example 5)", "assay_type": "in vivo", "method": "Fourty-three male Wistar rats were selected and distributed to treatment and control groups, each group comprising between 6 to 9 rats at the start of the study. Randomization was performed using the ABR threshold in the left ear at 16 kHz as a criterium. The “sham” group comprises 7 rats, which received neither noise exposure nor trans-tympanic injection. […] The “traumatized” group comprises 9 rats, which received noise exposure only and no treatment. The “traumatized vehicle” group comprises 7 rats, which received noise exposure and a trans-tympanic injection of placebo (a composition comprising only Cremophor EL®). The “traumatized paliroden” group comprises 7 rats, which received noise exposure and a trans-tympanic injection of a composition comprising paliroden (fumarate salt), corresponding to composition 7P described in Example 2. The “traumatized xaliproden” group comprises 7 rats, which received noise exposure and a trans-tympanic injection of a composition comprising xaliproden (hydrochloride salt), corresponding to composition 7X described in Example 2.\nAll animals (except sham group) received a bilateral noise exposure at a noise band of 8-16 kHz at 115 dB SPL RMS during 2 hours (from time T0 to time T0+2 hours).\n30 μL of compositions comprising either paliroden or xaliproden as active agent were administered once in both ears of each rat of the treatment groups (30 μL per ear) via trans-tympanic administration by injection between the eardrum and the round window by means of a needle which crosses the eardrum, 4 hours after the start of the noise exposure (i.e. at T0+4 hours, thus 2 hours after the end of the noise exposure), under isoflurane anesthesia. The compositions correspond respectively to compositions 7P and 7X described in Example 2, i.e. they comprise only Cremophor EL® as excipient and either paliroden (fumarate salt) or xaliproden (hydrochloride salt) as active agent. The dose of paliroden (fumarate salt) that is administered is 240 μg per ear of the rats belonging to the “traumatized paliroden” group (240 μg in the 30 μL that are injected via trans-tympanic route by injection between the eardrum and the round window by means of a needle which crosses the eardrum). The dose of xaliproden (hydrochloride salt) that is administered is 192 μg per ear of the rats belonging to the “traumatized xaliproden” group (192 μg in the 30 μL that are injected via trans-tympanic route by injection between the eardrum and the round window by means of a needle which crosses the eardrum). […]"}, "[2]": {"test_system": "synaptic ribbons in inner hair cells", "test": "Ribbon synapse immunostaining and counting in cochlea, immediate treatment (Example 6)", "assay_type": "in vivo, male Wistar rats", "settings": "2 hours and 8 days post-noise; for Number of pre-synaptic elements CtBP2 per IHC: 25 kHz and 32 kHz; for Number of pre-synaptic elements CtBP2 per IHC / Number of colocalized ribbons per IHC: vs traumatized vehicle group; for Number of colocalized ribbons per IHC: 25 kHz, paliroden 300 μg/ear, xaliproden 150 μg/ear; for Synapse loss in the inner hair cells: regions coding high frequency sounds", "method": "At T+28DAYS, after DPOAE/ABR measures, 10 cochleae (all eight (8) left cochleae and two (2) right cochleae taken randomly) per group were rapidly sampled and immediately fixed by PFA perfusion (through the round and oval windows with PFA 4% after creating a small hole at the apex) in order to performed ribbon synapse immunostaining and analysis. Cochleae were fixed for 1 hour in a 4% PFA solution and decalcified in undiluted RDO (10 mL/cochlea for a minimum of 2 hours). The membranous and sensory spiral containing the organ of Corti are dissected out as a flat surface preparation under a dissecting microscope and immunolabelled with appropriate antibodies: • Vglut3 (Vglut3-Guinea Pig IgG; #135 204, Synaptic systems and Anti-Guinea Pig IgG (H+L), #A21450; Thermo Fisher Scientific 647 nm Far-Red) to stain inner hair cell bodies (vesicular glutamate transporter). • Homer (Homer-Rabbit IgG; #GTX103278; Genetex and Anti-Rabbit IgG (H+L) #A11008 Thermo Fisher Scientific 568 nm Red) to stain dendritic proteins of auditory nerve fibers connecting to IHC (post-synaptic). • CtBP2 (CtBP2-Mouse-IgG1; #612044; BD Transduction Laboratories and Anti-Mouse IgG1, #A21121, Thermo Fisher Scientific 488 Green) to stain the ribeye protein as pre-synaptic marker in IHC. • Phalloidin (Alexa Fluor™ Plus 405 Phalloidin; #A30104; Thermo Fisher Scientific 405 Blue).\nImages were acquired on a confocal microscope and the slides were analyzed to i) evaluate by visual observation the presence of OHC (outer hair cells) and IHC (inner hair cells) (based on nuclei staining with CtBP2 and HC cell body staining with phalloidin) and ii) count the number of synaptic ribbons in selected inner hair cells in cochlea regions coding sound of selected frequency (16 kHz, 25 kHz and 32 kHz).\nThe number of pre- (CtBP2) and post-synaptic (Homer) labeled spots was counted using Imaris software in 3 dimensions for each image. Co-localization of pre- and post-synaptic elements was defined as a distance of maximum […] between CtBP2- and Homer-labeled spots, using an in-house Matlab program to calculate the distances between CtBP2 and Homer labels from the x, y, and z coordinates."}, "[3]": {"settings": "rat inner ear fluid, trans-tympanic 300 μg, thermoreversible hydrogel, read-out: Concentration of paliroden (fumarate salt), IEF, Mean"}, "[4]": {"settings": "plasma, rat, trans-tympanic 300 μg one ear, suspension in thermoreversible hydrogel, read-out: Concentration of paliroden (fumarate salt), Plasma, Mean"}, "[5]": {"settings": "rat, suspension in thermoreversible hydrogel"}, "[6]": {"settings": "rat, thermoreversible hydrogel, approximate conversion"}, "[7]": {"settings": "one day following noise exposure, from 25 to 32 kHz, paliroden 240 μg/ear, xaliproden 192 μg/ear"}, "[8]": {"settings": "plasma, 150 μg in one ear, rat, trans-tympanic 150 μg one ear, suspension in thermoreversible hydrogel, read-out: Concentration of xaliproden (hydrochloride salt), Plasma, Mean"}},
  "note": "Structures can show the parent of a compound that is named as a salt. Where two headings read alike, the source gives them in different places.",
  "data": [
    {"smiles": "FC(F)(F)c1cccc(C2=CCN(CCc3ccc(-c4ccccc4)cc3)CC2)c1", "note": "[paliroden (fumarate salt), 1-[2-(4-biphenylyl)ethyl]-4-(3-trifluoromethylphenyl)-1,2,3,6-tetrahydropyridine]", "values": [
      {"measurement": "concentration at 7 days", "setting": "[1]; 300 μg, rat, thermoreversible hydrogel, approximate conversion", "value": "~1200", "unit": "nM"},
      {"measurement": "concentration at 7 days", "setting": "[1]; rat, thermoreversible hydrogel", "value": "~600", "unit": "ng/mL"},
      {"measurement": "concentration at 168 h", "setting": "[1]; 300 μg in one ear, rat inner ear fluid, trans-tympanic 300 μg, thermoreversible hydrogel, T0 + 168 hours, n = 4, read-out: Concentration of paliroden (fumarate salt), IEF, Mean", "value": 687, "unit": "ng/mL"},
      {"measurement": "concentration at 1 h", "setting": "[1]; [3]", "value": 5490, "unit": "ng/mL"},
      {"measurement": "concentration at 24 h", "setting": "[1]; [3]", "value": 1370, "unit": "ng/mL"},
      {"measurement": "concentration at 168 h", "setting": "[1]; plasma, 300 μg in one ear, rat, trans-tympanic 300 μg one ear, suspension in thermoreversible hydrogel, T0 + 168 hours, read-out: Concentration of paliroden (fumarate salt), Plasma, Mean", "value": 0.2, "unit": "ng/mL"},
      {"measurement": "concentration at 1 h", "setting": "[1]; [4]", "value": 1, "unit": "ng/mL"},
      {"measurement": "concentration at 24 h", "setting": "[1]; [4]", "value": 0.4, "unit": "ng/mL"},
      {"measurement": "High concentrations rapidly reached in the inner ear fluid", "setting": "[1]; [5]", "value": "approximately 5000 ng/mL"},
      {"measurement": "High concentrations rapidly reached in the IEF (molar)", "setting": "[1]; [6]", "value": "approximately 10 μM"},
      {"measurement": "ABR Threshold shifts reduction in comparison to the traumatized vehicle group", "setting": "male Wistar rats; 7 days post-noise, from 16 to 32 kHz, paliroden 240 μg/ear", "value": "15-20 dB"},
      {"measurement": "ABR Threshold shifts reduction in comparison to the traumatized vehicle group", "setting": "male Wistar rats; [7]", "value": "approximately 10 dB"},
      {"measurement": "Number of pre-synaptic elements CtBP2 per IHC", "setting": "[2]", "value": "increase"},
      {"measurement": "Number of colocalized ribbons per IHC", "setting": "[2]", "value": "increase"},
      {"measurement": "Synapse loss in the inner hair cells", "setting": "[2]", "value": "tend to repair synapse loss"}
    ]},
    {"smiles": "FC(F)(F)c1cccc(C2=CCN(CCc3ccc4ccccc4c3)CC2)c1", "note": "[xaliproden (hydrochloride salt), 1-[2-(2-naphthyl)ethyl]-4-(3-trifluoromethylphenyl)-1,2,3,6-tetrahydropyridine]", "values": [
      {"measurement": "concentration at 7 days", "setting": "[1]; rat, thermoreversible hydrogel", "value": "~100", "unit": "ng/mL"},
      {"measurement": "concentration at 1 h", "setting": "[1]; 150 μg in one ear, rat inner ear fluid, trans-tympanic 150 μg, thermoreversible hydrogel, n = 4, read-out: Concentration of xaliproden (hydrochloride salt), IEF, Mean", "value": 5610, "unit": "ng/mL"},
      {"measurement": "concentration at 24 h", "setting": "[1]; 150 μg in one ear, rat inner ear fluid, trans-tympanic 150 μg, thermoreversible hydrogel, read-out: Concentration of xaliproden (hydrochloride salt), IEF, Mean", "value": 108, "unit": "ng/mL"},
      {"measurement": "concentration at 168 h", "setting": "[1]; 150 μg in one ear, rat inner ear fluid, trans-tympanic 150 μg, thermoreversible hydrogel, T0 + 168 hours, read-out: Concentration of xaliproden (hydrochloride salt), IEF, Mean", "value": 117, "unit": "ng/mL"},
      {"measurement": "concentration at 1 h", "setting": "[1]; [8]", "value": 4.9, "unit": "ng/mL"},
      {"measurement": "concentration at 24 h", "setting": "[1]; [8]", "value": 9.2, "unit": "ng/mL"},
      {"measurement": "Concentration of xaliproden (hydrochloride salt), Plasma, Mean", "setting": "[1]; rat, trans-tympanic 150 μg one ear, suspension in thermoreversible hydrogel, T0 + 168 hours", "value": "BLQ"},
      {"measurement": "High concentrations rapidly reached in the inner ear fluid", "setting": "[1]; [5]", "value": "approximately 5000 ng/mL"},
      {"measurement": "High concentrations rapidly reached in the IEF (molar)", "setting": "[1]; [6]", "value": "approximately 10 μM"},
      {"measurement": "ABR Threshold shifts reduction in comparison to the traumatized vehicle group", "setting": "male Wistar rats; 7 days post-noise, from 25 to 32 kHz, xaliproden 192 μg/ear", "value": "approximately 15 dB"},
      {"measurement": "ABR Threshold shifts reduction in comparison to the traumatized vehicle group", "setting": "male Wistar rats; [7]", "value": "approximately 10 dB"},
      {"measurement": "Number of pre-synaptic elements CtBP2 per IHC", "setting": "[2]", "value": "increase"},
      {"measurement": "Number of colocalized ribbons per IHC", "setting": "[2]", "value": "increase"},
      {"measurement": "Synapse loss in the inner hair cells", "setting": "[2]", "value": "tend to repair synapse loss"}
    ]}
  ]
}
